Assay results: article PMC7777204, “Locking mixed-lineage kinase domain-like protein in its auto-inhibited state prevents necroptosis” (Proceedings of the National Academy of Sciences of the …, 2020)

Legend:
[1] = tested on: Jurkat FADD−/− cells; assay: Jurkat FADD−/− necroptosis assay; assay type: cell-based; conditions: Homo sapiens, 10 ng/mL huTNFα, 24 h, Cell Titer Glo viability, read-out: Jurkat NEC IC50
Experimental: (§1) For the Jurkat FADD^−/− Necroptosis assay, compounds were serially diluted in 100% dimethyl sulfoxide (DMSO) (Sigma-Aldrich catalog no. 41641), and 250 nL was transferred to a sterile 384-well microtiter plate (PerkinElmer catalog no. 6007688) via Echo liquid handler (LABCYTE). Five thousand Jurkat FADD ^−/− cells (ATCC catalog no. CRL-2572) in 20 µL of modified Roswell Park Memorial Institute medium (Gibco catalog no. 10491), 10% fetal calf serum (Gibco catalog no. 100500), 1x Anti/Anti (Gibco catalog no. 15240-062), 1x L-Glutamax (Gibco catalog no. 35050-087), and 1% PenStrep (SIGMA catalog no. P4333) were seeded into each well of the prepared assay plate with compound. Cells and compounds were incubated for 30 min at 37 °C (humidified incubator with 5% CO2). After incubation, 5 µL of recombinant human TNFα (huTNFα) (Biotrend catalog no. cyt-223; 10 ng/mL final concentration [f.c.]) was added to the cells, followed by an incubation of 24 h at 37 °C. Following the incubation, the experimental plates were equilibrated to room temperature (30 min) before 25 µL of Cell Titer Glo Luminescent Cell Viability Assay System reagent (Promega catalog no. G7571) was added to the plate wells, incubated at room temperature for ∼10 min. After incubation, the samples were analyzed for luminescence by using an Envision reader (PerkinElmer).
(§2) Each assay plate contained wells with “high” and “low” controls. High controls (100% CTL) were defined as cells treated with DMSO, and low controls (0% CTL) were defined as cells treated with 10 ng/mL recombinant huTNFα. IC50 values were calculated based on the percentage of control values using a four-parameter-fitting model.
(§3) All cellular assays were done for Cpd 1, Cpd 2, Cpd 3, Cpd 4, and Cpd 5 in duplicate and in quadruplet for NSA.

[2] = tested on: U937 cells; assay: U937 cytotox assay; assay type: cell-based; conditions: Homo sapiens, U-937, without huTNFα and zVAD-fmk, read-out: U937 TOX IC50
Experimental: (§4) MLKL antagonists were also evaluated in a necroptosis assay with U937 cells ([26]) (ATCC catalog no. CRL-1593.2). The assay procedure with U937 cells was as described for the Jurakt FADD^−/− necroptosis assay with the following modifications: 8,000 cells were seeded per well, and, in addition to the recombinant huTNFα, cells were also incubated in the presence of 10 µM (f.c.) carbobenzoxy-valyl-alanyl-aspartyl-[O-methyl]-fluoromethylketone (zVAD-fmk) (Enzo Life Sciences catalog no. ALX-260-020). Low controls (0% CTL) were defined as cells treated with 100 ng/mL recombinant huTNFα plus 10 µM zVAD-fmk.
(§5) MLKL antagonists were tested in cytotox assays by using Jurkat FADD^−/− and U937 cells according to the assay procedures described for the necroptosis assays, but without treatment with recombinant huTNFα and/or zVAD-fmk. High controls (100% CTL, no effect) were defined as cells treated with DMSO, and low controls (0% CTL) were defined as medium without cells (0% CTL, maximal effect).
as §3

[3] = target: T1, human MLKL executioner domain (WT) (Homo sapiens, UniProt Q8NB16); assay: Functional NMR assay (detachment of α-helix 6), WT; assay type: biochemical; conditions: for Inhibitory effect on MLKL activation (α-helix 6 detachment), in words: 12 mM NM + 500 µM IP6 + 500 µM xanthine compound, compared with Cpd 3 (Fig. 3C); for Population of the activated state (pact), α-helix 6 detached: 12 mM NM alone or 500 µM IP6 alone
T1 construct: 80 µM MLKL N-terminal executioner domain (residues 1 to 154) was used; GST (thrombin cleavage site) (cleaved yes)
T1 sequence (Q8NB16 1-154): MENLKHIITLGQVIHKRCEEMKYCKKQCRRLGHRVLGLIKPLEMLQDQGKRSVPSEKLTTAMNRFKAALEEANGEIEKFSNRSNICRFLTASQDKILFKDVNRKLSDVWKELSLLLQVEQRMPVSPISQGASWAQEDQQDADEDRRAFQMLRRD
Excerpt: To test the significance of the additional interaction between α-helix 6 and the four-helix bundle provided by the xanthine compounds stacking to the phenyl ring of Phe148, we used a described functional NMR assay ([12]). Binding of phytic acid (IP6) and the detergent β-D-nonylmaltoside (NM) led to the detachment of α-helix 6, which can be monitored in ^1H,^15N-correlation spectra by the altered chemical shift of the Hε1–Nε1 correlation of Trp133 and the backbone N–H correlation of Ala141 ([12]). […] Adding 12 mM NM or 500 µM IP6 led to the appearance of a second very weak peak reporting on the detached α-helix 6 with a population of the activated state (pact) of 1% and 4%, respectively (Fig. 3). […] Combining 12 mM NM and 500 µM IP6 induced a dramatic increase of the population of the detached state (pact 86%). […] To further validate the importance of the π–π stacking interaction between the xanthine and Phe148 in α-helix 6, we carried out the functional NMR assay with the F148A-mutated variant of MLKL. The removal of the phenyl group induced significant CSPs localized in close proximity to the mutation site, due to the removal of ring currents and, therefore, strong electronic changes. […] MLKL F148A was more sensitive to the addition of 12 mM NM, 500 µM IP6, or the combination thereof. In the spectra in the presence of NM and the combination of NM and IP6, a third Trp133 peak appeared, most likely reporting on a state similar to the active state. […] Thus, the stacking interaction of the xanthine core to Phe148 is vital for the inhibitory activity of these MLKL inhibitors.
Fig. 3. (A and B) The region of the NMR ^1H,^15N-correlation spectra of the MLKL executioner domain (protein concentration: 80 µM) containing the cross-peaks of Trp133 Nε1–Hε1 in the auto-inhibited state where α-helix 6 is attached to the four-helix bundle (inact. state) and in the active, detached state (act. state) are shown. The unliganded state is depicted in black, with 12 mM NM in cyan; 500 µM IP6 in orange; 500 µM Cpd 3 in blue; 12 mM NM and 500 µM IP6 in red; and 12 mM NM, 500 µM IP6, and 500 µM Cpd 3 in green. The spectra depicted in A are measured with the WT protein and in B with the F148A variant. […] Dark gray bars correspond to the WT, while light gray bars correspond to the F148A variant. The asterisk means that no active conformation could be detected. Double asterisks indicate data not determined.
For the functional NMR assay ^1H,^15N-correlation spectra were recorded on a Bruker Avance III HD 600-MHz NMR spectrometer equipped with a cryogenic QCI probe in 2.5-mm NMR tubes at 298 K. Spectra were recorded with 64 complex points in the indirect dimension, 96 scans, and an interscan delay of 2 s. For the samples, 80 µM MLKL N-terminal executioner domain (residues 1 to 154) was used in a 20 mM sodium phosphate buffer at pH 7.5 containing 150 mM sodium chloride and 1 mM TCEP. For the different conditions, either 500 µM IP6, 12 mM NM, or a combination of the two were used. The xanthine compounds were tested at 500 µM, while NSA, due to limited solubility, was tested only at 200 µM, which is sufficient to saturate MLKL. Spectra were analyzed, and peaks were integrated in CcpNnmr analysis ([39]).

[4] = tested on: U937 cells; assay: U937 apoptosis assay; assay type: cell-based; conditions: Homo sapiens, U-937, 100 ng/mL huTNFα plus 3 µM NSA, read-out: U937 APOP IC50
Experimental: as §4
Furthermore, MLKL antagonists were tested in a U937 apoptosis assay in the presence of 3 µM (f.c.) NSA (Tocris catalog no. 5025) and 100 ng/mL (f.c.) recombinant huTNFα in the same way as described for the U937 necroptosis assay. Low controls (0% CTL) were defined as cells treated with 100 ng/mL recombinant huTNFα plus 3 µM NSA.
as §3

[5] = tested on: U937 cells; assay: U937 necroptosis assay; assay type: cell-based; conditions: Homo sapiens, U-937, huTNFα plus 10 µM zVAD-fmk, read-out: U937 NEC IC50
Experimental: as §1, §2, §4, §3

[6] = tested on: Jurkat FADD−/− cells; assay: Jurkat FADD−/− cytotox assay; assay type: cell-based; conditions: Homo sapiens, without huTNFα, Cell Titer Glo viability, read-out: Jurkat TOX IC50
Experimental: as §1, §5, §3

[7] = tested on: C86S-mutated MLKL; conditions: cited from earlier work

SMILES | Inhibitory effect on MLKL activation (α-helix 6 detachment), in words ([3]; WT) | IC50 [4] | Population of the activated state (pact), α-helix 6 detached ([3]; WT) | IC50 [1] | IC50 [2] | IC50 [5] | IC50 [6] | Activity in MLKL knockout cells transfected with C86S-mutated MLKL [7] | Effect on α-helix 6 detachment, in words ([3]; WT MLKL:NSA complex (200 µM NSA), addition of 12 mM NM and 500 µM IP6) | Induction of the active state by compound alone ([3]; WT, compound alone (Cpd 3 500 µM, NSA 200 µM), no NM/IP6)
Cn1c(=O)c2c(nc([S+](C)[O-])n2C)n(C)c1=O (centres unmarked) [Cpd 4] | significantly reduced | > 100 µM | – | 5.24 µM | > 100 µM | 3.17 µM | > 100 µM | – | – | –
O=P(O)(O)O[C@H]1[C@H](OP(=O)(O)O)[C@@H](OP(=O)(O)O)[C@H](OP(=O)(O)O)[C@@H](OP(=O)(O)O)[C@H]1OP(=O)(O)O [IP6, phytic acid] | – | – | 4% | – | – | – | – | – | – | –
COc1nccnc1NS(=O)(=O)c1ccc(NC(=O)/C=C/c2ccc([N+](=O)[O-])s2)cc1 [NSA, Necrosulfonamide] | – | > 100 µM | – | 1.4 µM | 14.7 µM | 0.454 µM | 6.2 µM | – | complete population shift to the active α-helix detached state | α-helix 6 remains in the attached auto-inhibitory state
CCCCCCCCCO[C@@H]1O[C@H](CO)[C@@H](O[C@H]2O[C@H](CO)[C@@H](O)[C@H](O)[C@H]2O)[C@H](O)[C@H]1O [NM, β-D-nonylmaltoside] | – | – | 1% | – | – | – | – | – | – | –

Further lines, with some results ahead:

Inhibitory effect on MLKL activation (α-helix 6 detachment), in words ([3]; WT) | IC50 [4] | Population of the activated state (pact), α-helix 6 detached ([3]; WT) | SMILES | IC50 [1] | IC50 [2] | IC50 [5] | IC50 [6] | Activity in MLKL knockout cells transfected with C86S-mutated MLKL [7] | Effect on α-helix 6 detachment, in words ([3]; WT MLKL:NSA complex (200 µM NSA), addition of 12 mM NM and 500 µM IP6) | Induction of the active state by compound alone ([3]; WT, compound alone (Cpd 3 500 µM, NSA 200 µM), no NM/IP6)
abolished | > 100 µM | – | CSc1nc2c(c(=O)n(C)c(=O)n2C)n1C [Cpd 5] | > 100 µM | > 100 µM | > 100 µM | > 100 µM | – | – | –
even less activated | > 100 µM | – | Cn1c(=O)c2c(nc(S(C)(=O)=O)n2C)n(C)c1=O [Cpd 1] | 0.574 µM | > 100 µM | 0.312 µM | 56.3 µM | hampered | – | –
even less activated | > 100 µM | – | COCCOCn1c(S(C)(=O)=O)nc2c1c(=O)n(C)c(=O)n2C [Cpd 2] | 0.069 µM | 4.38 µM | 0.042 µM | 3.83 µM | hampered | – | –
